{"source": "paper PMC12042115", "about": "(mLife, 2025)", "test_system": "wild‐type BCG cells", "format": "cell-based, M. bovis BCG", "conditions": "for Mean_Ratio (GDI5755_3d vs DMSO_3d): down-regulated, 3 d; for Mean Ratio: GDI5755_2d vs DMSO_2d; for Mean Ratio / Mean Ratio (GDI5755_2d vs DMSO_2d): up-regulated; for Mean Ratio (GDI5755_2d vs DMSO_2d): 2d", "note": "Where two headings read alike, the source gives them in different places."}
{"smiles": "O=C(Oc1ccc(Cl)cc1)c1ccc(N2CCOCC2)c([N+](=O)[O-])c1", "note": "[GDI‐5755]", "values": [{"measurement": "Mean_Ratio (GDI5755_3d vs DMSO_3d)", "setting": "protein A0A0H3M2P5, BCG_0207 (Rv0170), MCE-family protein mce1B", "value": 0.7}, {"measurement": "Mean Ratio", "setting": "protein A0A0H3M2Q0 Probable conserved mce associated membrane protein", "value": 1.29}, {"measurement": "Mean Ratio", "setting": "protein A0A0H3M2Q5 Probable conserved transmembrane protein", "value": 1.31}, {"measurement": "Mean Ratio (GDI5755_2d vs DMSO_2d)", "setting": "protein A0A0H3M2T8 Possible conserved membrane protein mmpS5", "value": 1.38}, {"measurement": "Mean Ratio", "setting": "protein A0A0H3M3A7 3-hydroxyacyl-CoA dehydrogenase", "value": 1.27}, {"measurement": "Mean_Ratio (GDI5755_3d vs DMSO_3d)", "setting": "protein A0A0H3M3B6, BCG_1227 (Rv1165), Large ribosomal subunit assembly factor BipA", "value": 0.749}, {"measurement": "Mean_Ratio (GDI5755_3d vs DMSO_3d)", "setting": "protein A0A0H3M3D2, BCG_0932 (Rv0880), Possible transcriptional regulatory protein (Possibly marR-family)", "value": 0.738}, {"measurement": "Mean_Ratio (GDI5755_3d vs DMSO_3d)", "setting": "protein A0A0H3M3H3, BCG_1314 (Rv1254), Probable acyltransferase", "value": 0.748}, {"measurement": "Mean Ratio", "setting": "protein A0A0H3M3I2 Uncharacterized protein", "value": 1.28}, {"measurement": "Mean Ratio", "setting": "protein A0A0H3M3J3 Probable periplasmic oligopeptide-binding lipoprotein oppA", "value": 1.27}, {"measurement": "Mean Ratio (GDI5755_2d vs DMSO_2d)", "setting": "protein A0A0H3M3L0 Conserved hypothetical transmembrane protein", "value": 1.38}, {"measurement": "Mean Ratio", "setting": "protein A0A0H3M3S8 Lipoarabinomannan carrier protein LprG", "value": 1.31}, {"measurement": "Mean Ratio", "setting": "protein A0A0H3M3T4 Possible conserved membrane protein", "value": 1.31}, {"measurement": "Mean Ratio", "setting": "protein A0A0H3M3X9 Probable cation transporter P-type atpase D ctpD", "value": 1.31}, {"measurement": "Mean_Ratio (GDI5755_3d vs DMSO_3d)", "setting": "protein A0A0H3M4A0, BCG_1633 (Rv1595), L-aspartate oxidase", "value": 0.7}, {"measurement": "Mean Ratio (GDI5755_2d vs DMSO_2d)", "setting": "protein A0A0H3M4G0 Lipoprotein lprB", "value": 1.35}, {"measurement": "Mean_Ratio (GDI5755_3d vs DMSO_3d)", "setting": "protein A0A0H3M4I9, BCG_1379c (Rv1318c), Possible adenylate cyclase", "value": 0.7}, {"measurement": "Mean_Ratio (GDI5755_3d vs DMSO_3d)", "setting": "protein A0A0H3M4L2, BCG_1760c (Rv1721c), Antitoxin VapB12", "value": 0.7}, {"measurement": "Mean Ratio", "setting": "protein A0A0H3M4W6 DUF1490 family protein", "value": 1.26}, {"measurement": "Mean_Ratio (GDI5755_3d vs DMSO_3d)", "setting": "protein A0A0H3M5A9, BCG_1670c (Rv1632c), DUF402 domain-containing protein", "value": 0.74}, {"measurement": "Mean Ratio (GDI5755_2d vs DMSO_2d)", "setting": "protein A0A0H3M5C0 RNA polymerase sigma factor", "value": 1.33}, {"measurement": "Mean_Ratio (GDI5755_3d vs DMSO_3d)", "setting": "protein A0A0H3M5G5, BCG_1251, alternative RNA polymerase sigma factor sigI", "value": 0.7}, {"measurement": "Mean Ratio", "setting": "protein A0A0H3M5I2 Uncharacterized protein", "value": 1.28}, {"measurement": "Mean Ratio", "setting": "protein A0A0H3M5J1 Probable serine protease htrA", "value": 1.26}, {"measurement": "Mean Ratio (GDI5755_2d vs DMSO_2d)", "setting": "protein A0A0H3M5K5 DUF4129 domain-containing protein", "value": 1.38}, {"measurement": "Mean_Ratio (GDI5755_3d vs DMSO_3d)", "setting": "protein A0A0H3M5K7, BCG_1305c (Rv1245c), Probable short-chain type dehydrogenase/reductase", "value": 0.7}, {"measurement": "Mean Ratio (GDI5755_2d vs DMSO_2d)", "setting": "protein A0A0H3M5K8 Methylenetetrahydrofolate reductase", "value": 1.33}, {"measurement": "Mean_Ratio (GDI5755_3d vs DMSO_3d)", "setting": "protein A0A0H3M5L3, BCG_1311c (Rv1251c), Uncharacterized protein", "value": 0.76}, {"measurement": "Mean Ratio", "setting": "protein A0A0H3M5L8 1-acylglycerol-3-phosphate O-acyltransferase", "value": 1.26}, {"measurement": "Mean Ratio (GDI5755_2d vs DMSO_2d)", "setting": "protein A0A0H3M5V5 Possible flavoprotein", "value": 1.33}, {"measurement": "Mean Ratio (GDI5755_2d vs DMSO_2d)", "setting": "protein A0A0H3M5V7 Possible transmembrane protein", "value": 1.32}, {"measurement": "Mean Ratio", "setting": "protein A0A0H3M5V9 DUF3145 domain-containing protein", "value": 1.32}, {"measurement": "Mean Ratio (GDI5755_2d vs DMSO_2d)", "setting": "protein A0A0H3M6F8 Probable 'component linked with the assembly of cytochrome' transport transmembrane ATP-binding protein ABC transporter cydC", "value": 1.33}, {"measurement": "Mean_Ratio (GDI5755_3d vs DMSO_3d)", "setting": "protein A0A0H3M6P3, BCG_1740c (Rv1702c), HNH nuclease domain-containing protein", "value": 0.759}, {"measurement": "Mean Ratio", "setting": "protein A0A0H3M6T8 Uncharacterized protein", "value": 1.25}, {"measurement": "Mean Ratio (GDI5755_2d vs DMSO_2d)", "setting": "protein A0A0H3M7A1 Probable conserved membrane protein", "value": 1.33}, {"measurement": "Mean Ratio", "setting": "protein A0A0H3M7A2 (2E)-enoyl-[ACP] glycyltransferase", "value": 1.27}, {"measurement": "Mean Ratio", "setting": "protein A0A0H3M7D2 Quinone oxidoreductase", "value": 1.25}, {"measurement": "Mean_Ratio (GDI5755_3d vs DMSO_3d)", "setting": "protein A0A0H3M7E6, BCG_0206 (Rv0169), MCE-family protein mce1A", "value": 0.7}, {"measurement": "Mean_Ratio (GDI5755_3d vs DMSO_3d)", "setting": "protein A0A0H3M7F0, BCG_0211 (Rv0174), MCE-family protein mce1F", "value": 0.7}, {"measurement": "Mean Ratio (GDI5755_2d vs DMSO_2d)", "setting": "protein A0A0H3M7F7 Hemerythrin-like domain-containing protein", "value": 1.39}, {"measurement": "Mean Ratio", "setting": "protein A0A0H3M7J3 UspA domain-containing protein", "value": 1.27}, {"measurement": "Mean Ratio", "setting": "protein A0A0H3M7L3 Succinate dehydrogenase [membrane anchor subunit]", "value": 1.25}, {"measurement": "Mean Ratio", "setting": "protein A0A0H3M7L4 Possible transmembrane protein dedA", "value": 1.29}, {"measurement": "Mean Ratio", "setting": "protein A0A0H3M7L9 Probable arsenic-transport integral membrane protein arsC", "value": 1.30}, {"measurement": "Mean Ratio", "setting": "protein A0A0H3M7M0 Posible transcriptional regulatory protein", "value": 1.27}, {"measurement": "Mean_Ratio (GDI5755_3d vs DMSO_3d)", "setting": "protein A0A0H3M7M6, BCG_2876 (Rv2856), Nickel/cobalt efflux system", "value": 0.7}, {"measurement": "Mean Ratio", "setting": "protein A0A0H3M7N4 Possible secreted protease", "value": 1.32}, {"measurement": "Mean_Ratio (GDI5755_3d vs DMSO_3d)", "setting": "protein A0A0H3M7R0, BCG_0355, Possible beta-1,3-glucanase", "value": 0.7}, {"measurement": "Mean Ratio", "setting": "protein A0A0H3M7R4 Probable membrane protein", "value": 1.30}, {"measurement": "Mean_Ratio (GDI5755_3d vs DMSO_3d)", "setting": "protein A0A0H3M7T2, BCG_2131, Uncharacterized protein", "value": 0.742}, {"measurement": "Mean_Ratio (GDI5755_3d vs DMSO_3d)", "setting": "protein A0A0H3M7W0, BCG_2977 (Rv2956), Methyltransferase FkbM domain-containing protein", "value": 0.7}, {"measurement": "Mean Ratio", "setting": "protein A0A0H3M7X0 Probable conserved transmembrane protein", "value": 1.28}, {"measurement": "Mean Ratio", "setting": "protein A0A0H3M7X3 Probable conserved transmembrane protein", "value": 1.32}, {"measurement": "Mean_Ratio (GDI5755_3d vs DMSO_3d)", "setting": "protein A0A0H3M7Y1, BCG_0442 (Rv0404), Probable fatty-acid-CoA ligase fadD30", "value": 0.7}, {"measurement": "Mean_Ratio (GDI5755_3d vs DMSO_3d)", "setting": "protein A0A0H3M7Y6, BCG_2210 (Rv2194), Cytochrome bc1 complex cytochrome c subunit, qcrC", "value": 0.747}, {"measurement": "Mean Ratio", "setting": "protein A0A0H3M8J5 Protein translocase subunit SecE", "value": 1.31}, {"measurement": "Mean Ratio (GDI5755_2d vs DMSO_2d)", "setting": "protein A0A0H3M8K7 DUF4333 domain-containing protein", "value": 1.33}, {"measurement": "Mean Ratio", "setting": "protein A0A0H3M8L8 Probable FeIII-dicitrate-binding periplasmic lipoprotein fecB", "value": 1.27}, {"measurement": "Mean Ratio", "setting": "protein A0A0H3M8M0 Conserved hypothetical threonine rich protein", "value": 1.26}, {"measurement": "Mean Ratio", "setting": "protein A0A0H3M8Q9 Probable short-chain type dehydrogenase/reductase", "value": 1.27}, {"measurement": "Mean_Ratio (GDI5755_3d vs DMSO_3d)", "setting": "protein A0A0H3M8T3, BCG_3410 (Rv3340), Probable O-acetylhomoserine sulfhydrylase metC", "value": 0.7}, {"measurement": "Mean Ratio", "setting": "protein A0A0H3M8V5 Possible transcriptional regulatory protein (Probably tetR-family)", "value": 1.29}, {"measurement": "Mean_Ratio (GDI5755_3d vs DMSO_3d)", "setting": "protein A0A0H3M8X7, BCG_3431 (Rv3359), Possible oxidoreductase", "value": 0.737}, {"measurement": "Mean Ratio (GDI5755_2d vs DMSO_2d)", "setting": "protein A0A0H3M8X9 Probable oxidase", "value": 1.33}, {"measurement": "Mean_Ratio (GDI5755_3d vs DMSO_3d)", "setting": "protein A0A0H3M8Y4, BCG_3436c (Rv3364c), Roadblock/LAMTOR2 domain-containing protein/Serine protease inhibitor", "value": 0.75}]}
